The values that follow come from article PMC4104309, “Estradiol Binds to Insulin and Insulin Receptor Decreasing Insulin Binding in vitro” (Frontiers in Endocrinology, 2014).

pKd: −log10 of the molar value. “And” between values parts separate entries of the source, which are not always exact repeats. Equal values may be shown once. Where a name gives a salt, the structure may show the parent alone. Read-outs that look alike come from different tables or passages of the source.

Series [1] addresses recombinant human insulin (Humulin) (Homo sapiens, UniProt P01308). Briefly: UV spectroscopy binding of sex hormones to recombinant human insulin (Humulin). To be noted: for Binding to INS (in words): UV spectroscopic studies, discussion summary.
Series [2] relates to INS binding. The following applies: 1 mg dose of E2, within 24 h; ref Hilf et al. ([80]); cited from earlier work.
Series [3] has as its target oxidized insulin B chain (Insulin beta chain) (Bos taurus, UniProt P01317). Briefly: UV spectroscopy binding to oxidized insulin B chain. The following applies: read-out: Binding constant to individual oxidized INS B chain. The text has this:
(§1) Additions were made serially.

Series [4] has as its target IR α 233–248 peptide of the human insulin receptor (Homo sapiens, UniProt P06213). Briefly: UV spectroscopy binding to insulin receptor peptide IR α 233–248.
The next series deals with Glucagon (Homo sapiens, UniProt P01275). Briefly: UV spectroscopy binding to glucagon (control).
Series [5] concerns the target IR β 897–916 peptide of the human insulin receptor (Homo sapiens, UniProt P06213). Briefly: UV spectroscopy binding to insulin receptor peptide IR β 897–916.
The target in series [6] is IR α 91–103 peptide of the human insulin receptor (Homo sapiens, UniProt P06213). Briefly: UV spectroscopy binding to insulin receptor peptide IR α 91–103.
In series [7] the test system is insulin receptor (IR) isolated from rat liver. Briefly: Enzyme-linked INS binding assay: effect of E2 on INS–HRP binding to IR.
The target of series [8] is IR α 284–300 peptide of the human insulin receptor (Homo sapiens, UniProt P06213). Briefly: UV spectroscopy binding to insulin receptor peptide IR α 284–300.
Series [9] is described as follows: Concentration of E2 in E2-saturated buffer with INS–HRP or IR, by capillary electrophoresis. The format is physicochemical. To be noted: crystals in buffer, at least 48 h room temperature; CE read-out.
Series [10] deals with IR α 223–234 peptide of the human insulin receptor (Homo sapiens, UniProt P06213). Briefly: UV spectroscopy binding to insulin receptor peptide IR α 223–234.
In series [11] the test system is INS binding. To be noted: 10^−8 M 17β-estradiol in the culture medium; ref Hilf et al. ([80]); cited from earlier work.
Series [12] addresses T1, IR α 424–441 peptide of the human insulin receptor (Homo sapiens, UniProt P06213).
T1 construct: IR α 424–441; made in house; host or cells: chemical peptide synthesis (Michigan State University facility)
Briefly: UV spectroscopy binding to insulin receptor peptide IR α 424–441. The following applies: for Kd: UV spectroscopy, peptide 100 nM in pH 7.4 phosphate buffer, 30 min room temperature, duplicates averaged. The text has this:
Humulin R was obtained from Lilly.

The target of series [13] is IR α 453–464 peptide of the human insulin receptor (Homo sapiens, UniProt P06213). Briefly: UV spectroscopy binding to insulin receptor peptide IR α 453–464.
For series [14], the target named is oxidized insulin A chain (Insulin alpha chain) (Bos taurus, UniProt P01317). Briefly: UV spectroscopy binding to oxidized insulin A chain.
Series [15] deals with human INS-like growth factor receptor (IGFR) (Homo sapiens, UniProt P08069). Briefly: UV spectroscopy (serial addition) binding of estradiol to IGFR. The following applies: human recombinant IGFR, biphasic. On the procedure:
Rat IR membrane preparation (I-9266) (IR) and human INS-like growth factor receptor (IGFR) (I-4657) were obtained from Sigma-Aldrich. The rat IR was a partially purified preparation in residual membrane and contained 250 units of activity as measured by its ability to catalyze the incorporation of 1 pmol per min of phosphate from γ-^32P-ATP into poly(Glu, Tyr), 4:1, at 30°C. The IGFR was recombinant, at least 95% pure by SDS-PAGE, and capable of binding INS-like growth factor. Both receptor preparations, in sum, retained activity.
as §1
This serial addition method was also used to determine the binding of estradiol to IR and IGFR.

In series [16] the target is IR α 105–118 peptide of the human insulin receptor (Homo sapiens, UniProt P06213). Briefly: UV spectroscopy binding to insulin receptor peptide IR α 105–118.
Series [17] addresses IR α 392–404 peptide of the human insulin receptor (Homo sapiens, UniProt P06213). Briefly: UV spectroscopy binding to insulin receptor peptide IR α 392–404.
A further series relates to Human recombinant INS. Briefly: Capillary electrophoresis: E2 in solution with and without insulin. The following applies: mean ± SD of the five EI/E ratios (10, 15, 20, 25, 30 kV).
Setting [18] is: Binding constant to recombinant human INS, UV spectroscopy.

IR β 897–916 peptide of the human insulin receptor, sequence (P06213 897-916 limits assumed): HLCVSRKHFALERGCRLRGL
recombinant human insulin (Humulin), sequence (P01308 with tags, fused parts or gaps): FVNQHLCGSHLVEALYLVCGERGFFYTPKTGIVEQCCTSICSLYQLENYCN
recombinant human insulin (Humulin), sequence (P01308 with tags, fused parts or gaps): as above
oxidized insulin A chain (Insulin alpha chain), sequence (P01317 85-105): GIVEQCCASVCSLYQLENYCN
human INS-like growth factor receptor (IGFR), sequence (P08069 with tags, fused parts or gaps): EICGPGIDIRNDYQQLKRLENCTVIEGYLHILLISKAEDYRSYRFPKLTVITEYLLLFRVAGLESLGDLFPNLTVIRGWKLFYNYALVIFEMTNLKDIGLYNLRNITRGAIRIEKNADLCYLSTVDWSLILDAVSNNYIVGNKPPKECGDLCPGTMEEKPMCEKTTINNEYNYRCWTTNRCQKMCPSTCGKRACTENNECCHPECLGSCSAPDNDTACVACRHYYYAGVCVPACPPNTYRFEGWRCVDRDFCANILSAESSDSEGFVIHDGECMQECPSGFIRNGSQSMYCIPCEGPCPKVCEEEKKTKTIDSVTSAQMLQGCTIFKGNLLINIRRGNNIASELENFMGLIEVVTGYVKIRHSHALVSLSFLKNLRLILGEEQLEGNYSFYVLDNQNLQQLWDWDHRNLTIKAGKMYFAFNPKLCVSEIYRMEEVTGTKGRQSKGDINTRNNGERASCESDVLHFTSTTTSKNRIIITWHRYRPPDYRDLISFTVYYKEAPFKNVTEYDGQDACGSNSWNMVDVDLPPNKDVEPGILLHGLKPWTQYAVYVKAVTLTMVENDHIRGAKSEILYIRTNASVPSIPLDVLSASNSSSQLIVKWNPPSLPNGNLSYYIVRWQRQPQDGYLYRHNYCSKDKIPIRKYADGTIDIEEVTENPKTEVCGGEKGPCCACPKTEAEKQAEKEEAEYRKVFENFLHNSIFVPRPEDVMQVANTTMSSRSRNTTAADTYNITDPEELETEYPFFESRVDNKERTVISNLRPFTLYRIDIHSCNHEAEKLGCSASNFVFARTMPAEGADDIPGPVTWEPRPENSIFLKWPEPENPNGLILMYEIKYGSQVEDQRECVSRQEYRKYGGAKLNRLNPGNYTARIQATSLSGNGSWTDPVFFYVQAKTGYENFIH
Glucagon, sequence (P01275 53-81): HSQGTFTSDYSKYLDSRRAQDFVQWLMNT
oxidized insulin B chain (Insulin beta chain), sequence (P01317 25-54): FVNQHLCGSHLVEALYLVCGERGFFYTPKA

`C[C@]12CC[C@@H]3c4ccc(O)cc4CC[C@H]3[C@@H]1CC[C@H]2O` [17α-Estradiol]: the pKd in [1] is 5.00. Also, the “Binding to INS (in words), serial additions” value in series [1] (UV spectroscopy, serial additions, even at 1 μM (Figure 2)) is “does not bind significantly”.
As for `C[C@]12CC[C@@H]3c4ccc(O)cc4CC[C@H]3[C@@H]1CC[C@@H]2O` [17β-Estradiol (E2), 17β-Estradiol], the “Decrease of INS binding in rats” value in the series on INS binding [2] is not above 50%. Further, the pKd in [3] was 3.82; in series [4], less than 3.30; in series [5], 6.11; in series [6], 3.92; in series [8] it was 6.05; in [1] it was 7.92. Further, the pKd is ~7.92 and 7.92 in [1] (Binding constant (Kd) to INS, high affinity binding, UV spectroscopy); 4.19 in series [1] (read-out: Binding constant to INS, low affinity binding, UV spectroscopy, biphasic binding); less than 3.30 in [10]; less than 3.30 in [13]; 3.66 in series [14] (read-out: Binding constant to individual oxidized INS A chain, UV spectroscopy); approximately 7.00 in [15] (read-out: Binding to IGFR, high affinity binding). Also, the pKd was less than 5.00 in series [15] (read-out: Kd to IGFR, lower affinity binding); 3.55 in [16]; less than 3.30 in [17]. The “Binding to glucagon (in words)” value at Glucagon is reported as “does not bind with measurable affinity”. The “Shift of INS–HRP/IR binding curve to the right” value in series [7] (E2 incubated with either INS–HRP or the IR alone, E2 initially 200 nM, about 22 nM at curve mid-point, duplicates averaged) is given as “half”; in [7] (both the IR and INS–HRP exposed to E2, E2 about 22 nM at curve mid-point) it was 0.8 log units. For the same compound, the “Concentration of E2 in E2-saturated phosphate buffer in the presence of INS or IR” value in series [9] is “ca. 60 ng/ml”. In the series with INS binding [11], the “Decrease of INS binding in cell culture” value is given as ~ 20%. The dissociation constant (Kd) in [12] was more than 500 µM. Also, the “Binding to the insulin A chain (in words), serial additions” value in series [14] (UV serial addition, 1000 times the concentration of E2 used in Figure 2 (Figure 3)) is recorded as “no binding was apparent”. The “EI/E ratio, mean ± SD” value in the series with Human recombinant INS is on record as 3.96 ± 0.45.
Take `C[C@]12CCC(=O)C=C1CC[C@@H]1[C@@H]2CC[C@]2(C)C(=O)CC[C@@H]12` [Andro-stenedione, 4-andro-stenedione]: the pKd in series [4] is less than 3.30; in series [5] it was less than 3.30; in [6], less than 3.30; in series [8] it was less than 3.30; in series [1] it was 4.87; in series [10], less than 3.30. The pKd in [12], in series [13], in series [16] and in series [17] was less than 3.30 in each case.
As for `CC(C)CCC[C@@H](C)[C@H]1CC[C@H]2[C@@H]3CC=C4C[C@@H](O)CC[C@]4(C)[C@H]3CC[C@]12C` [Cholesterol], the pKd in series [4], in [5], in series [6], in series [8], in series [1] and in series [10] was less than 3.30 throughout. The pKd in series [13], in series [16] and in series [17] was less than 3.30 throughout.
As for `C[C@]12C[C@H](O)[C@H]3[C@@H](CCC4=CC(=O)CC[C@@]43C)[C@@H]1CC[C@@H]2C(=O)CO` [Corticosterone], in series [1], the pKd was 4.68.
For `C[C@]12CC[C@@H]3c4ccc(O)cc4CC[C@H]3[C@@H]1C[C@@H](O)[C@@H]2O` [Estriol], the pKd in series [4], in series [5], in series [6], in [8], in series [1] and in [1] (setting [18]) was less than 3.30 throughout. For the same compound, the pKd in series [10] was less than 3.30; in series [13], 3.41; in series [16], less than 3.30; in series [17], less than 3.30. Also, in [12], binding was characterised by a dissociation constant (Kd) of 380 µM.
As for `C[C@]12CC[C@@H]3c4ccc(O)cc4CC[C@H]3[C@@H]1CCC2=O` [Estrone], the pKd in series [4] is less than 3.30; in series [5], less than 3.30; in [6], less than 3.30; in series [8], less than 3.30; in series [1] it was 5.90; in series [10], less than 3.30. Moreover, the pKd in series [13], in series [16] and in series [17] was less than 3.30 in each case. The compound further registered a Kd in [12] of more than 500 µM.
`O=c1c(-c2ccc(O)cc2)coc2cc(O)cc(O)c12` [Genistein]: in series [1], the pKd is less than 3.30 and the “Binding to INS (in words)” value is on record as “negligible binding”.
Regarding `C[C@]12CCC(=O)C=C1CC[C@@H]1[C@@H]2[C@@H](O)C[C@@]2(C)[C@H]1CC[C@]2(O)C(=O)CO` [Hydrocortisone], the pKd in [1] is 4.20.
Compound `CC(=O)[C@H]1CC[C@H]2[C@@H]3CC=C4C[C@@H](O)CC[C@]4(C)[C@H]3CC[C@]12C` [Pregnenolone, 5-Pregnen-3β-ol-20-one] displayed a Kd in series [12] of more than 500 µM.
`CC(=O)[C@H]1CC[C@H]2[C@@H]3CCC4=CC(=O)CC[C@]4(C)[C@H]3CC[C@]12C` [Progesterone]: the pKd in series [4], in series [5], in series [6], in series [8], in series [1] and in series [10] was less than 3.30 throughout. Besides, the pKd in [13], in [16] and in [17] was less than 3.30 in each case.
On to `O=C(c1ccc(OCCN2CCCCC2)cc1)c1c(-c2ccc(O)cc2)sc2cc(O)ccc12` [Raloxifene, Raloxifene HCl], for which, in [1], the pKd was 3.89 and the “Binding to INS (in words)” value was “negligible binding”. Further, the pKd in series [1] (setting [18]) was 3.89.
Regarding `CC/C(=C(\c1ccccc1)c1ccc(OCCN(C)C)cc1)c1ccccc1` [Tamoxifen, Tamoxifen citrate salt], in series [1], the pKd is less than 3.30 and the “Binding to INS (in words)” value is “negligible binding”.
In the case of “insulin conjugated to horse-radish peroxidase (ligand)”, the pKd in the series with IR α 424–441 (human) is less than 3.30; with IR α 392–404 (human), 6.52; in the series with IR α 233–248 (human) it was 8.10; in the series with IR α 91–103 (human) it was 7.15; with IR α 223–234 (human), less than 3.30.
